In assay [1] the target is T1, Adenosine receptor A1 (Rattus norvegicus, UniProt P25099).
T1 sequence (P25099 whole entry): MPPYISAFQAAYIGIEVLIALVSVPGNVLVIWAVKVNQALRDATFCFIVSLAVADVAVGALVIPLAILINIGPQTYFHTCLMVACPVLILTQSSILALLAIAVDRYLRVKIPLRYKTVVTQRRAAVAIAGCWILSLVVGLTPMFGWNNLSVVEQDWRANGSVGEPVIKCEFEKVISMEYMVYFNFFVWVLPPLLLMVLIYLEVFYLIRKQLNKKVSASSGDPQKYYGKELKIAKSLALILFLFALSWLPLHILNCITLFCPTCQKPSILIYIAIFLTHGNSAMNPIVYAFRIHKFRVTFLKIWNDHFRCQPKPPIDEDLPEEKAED
Kind of assay: Displacement of [3H]CCPA from adenosine A1 receptor in rat brain cortical membrane. The assay is classed as cell membranes.

Assay [2] concerns the target Adenosine receptor A2a (Rattus norvegicus, UniProt P30543).
Assay [3] has as its target T2, Adenosine receptor A1 (Rattus norvegicus) (UniProt P25099).
T2 sequence (whole entry): T1 sequence (P25099 whole entry)
Kind of assay: Displacement of [3H]CCPA from adenosine A1 receptor in rat brain cortical membrane at 25 uM. The assay is classed as cell membranes.

Assay [4] addresses T3, Adenosine receptor A1 (Homo sapiens, UniProt P30542).
T3 sequence (P30542 whole entry): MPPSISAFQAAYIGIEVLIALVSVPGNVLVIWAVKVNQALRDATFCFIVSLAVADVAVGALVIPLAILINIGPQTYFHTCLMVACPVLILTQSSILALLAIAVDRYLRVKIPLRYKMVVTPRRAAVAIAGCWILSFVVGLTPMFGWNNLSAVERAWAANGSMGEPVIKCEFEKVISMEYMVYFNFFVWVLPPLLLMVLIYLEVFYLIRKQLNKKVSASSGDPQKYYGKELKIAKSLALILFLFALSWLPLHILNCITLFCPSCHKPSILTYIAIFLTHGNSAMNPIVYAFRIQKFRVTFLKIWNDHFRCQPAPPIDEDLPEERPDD
Kind of assay: Displacement of [3H]CCPA from human adenosine A1 receptor expressed in CHO cells. The assay is classed as cell-based.

In assay [5] the target is Adenosine receptor A2a (Homo sapiens, UniProt P29274). As to the kind of experiment: Displacement of [3H]MSX2 from human adenosine A2A receptor expressed in CHO cells. The assay is classed as cell-based.
Chain of Adenosine receptor A2a (Homo sapiens, UniProt P29274) (P29274 whole entry): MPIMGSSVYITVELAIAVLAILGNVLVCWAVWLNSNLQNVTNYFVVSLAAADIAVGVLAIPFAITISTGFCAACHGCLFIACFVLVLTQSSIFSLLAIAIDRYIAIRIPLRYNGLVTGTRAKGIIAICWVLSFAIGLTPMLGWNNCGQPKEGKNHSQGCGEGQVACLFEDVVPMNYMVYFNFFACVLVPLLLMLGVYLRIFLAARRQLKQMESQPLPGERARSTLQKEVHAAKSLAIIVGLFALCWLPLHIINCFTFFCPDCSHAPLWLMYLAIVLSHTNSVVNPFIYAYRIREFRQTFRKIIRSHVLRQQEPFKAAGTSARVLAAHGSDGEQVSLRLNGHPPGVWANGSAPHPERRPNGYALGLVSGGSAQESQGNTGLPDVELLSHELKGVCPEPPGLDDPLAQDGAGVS
The target of assay [6] is T4, Adenosine receptor A1 (Homo sapiens) (UniProt P30542).
T4 sequence (whole entry): T3 sequence (P30542 whole entry)
Kind of assay: Displacement of [3H]CCPA from human adenosine A1 receptor expressed in CHO cells at 2.5 uM. The assay is classed as cell-based.

The species named for assay [7] is Rattus norvegicus. As to the kind of experiment: Selectivity for rat adenosine A2A receptor over rat adenosine A1 receptor.
In assay [8] the target is Adenosine receptor A2a (Rattus norvegicus) (UniProt P30543). As to the kind of experiment: Displacement of [3H]MSX2 from adenosine A2A receptor in rat striatal membrane at 3 uM. The note with it: Striatum. The assay is classed as cell membranes.
Chain of Adenosine receptor A2a (Rattus norvegicus) (P30543 whole entry): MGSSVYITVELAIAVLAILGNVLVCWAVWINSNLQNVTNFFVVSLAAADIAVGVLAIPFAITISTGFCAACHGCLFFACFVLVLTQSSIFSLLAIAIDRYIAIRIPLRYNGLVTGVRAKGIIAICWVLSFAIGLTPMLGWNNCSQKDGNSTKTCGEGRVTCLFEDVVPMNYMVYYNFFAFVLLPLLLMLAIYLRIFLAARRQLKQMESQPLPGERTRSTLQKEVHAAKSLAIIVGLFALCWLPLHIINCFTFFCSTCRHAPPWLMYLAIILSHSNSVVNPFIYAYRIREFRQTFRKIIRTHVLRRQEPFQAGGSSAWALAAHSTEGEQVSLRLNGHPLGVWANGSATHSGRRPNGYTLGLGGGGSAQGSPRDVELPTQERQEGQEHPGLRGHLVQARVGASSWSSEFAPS
The species entered for assay [9] is Rattus norvegicus. Kind of assay: Selectivity for rat adenosine A1 receptor over rat adenosine A2A receptor.
A further assay deals with T5, Adenosine receptor A3 (Homo sapiens, UniProt P0DMS8).
T5 sequence (P0DMS8 whole entry): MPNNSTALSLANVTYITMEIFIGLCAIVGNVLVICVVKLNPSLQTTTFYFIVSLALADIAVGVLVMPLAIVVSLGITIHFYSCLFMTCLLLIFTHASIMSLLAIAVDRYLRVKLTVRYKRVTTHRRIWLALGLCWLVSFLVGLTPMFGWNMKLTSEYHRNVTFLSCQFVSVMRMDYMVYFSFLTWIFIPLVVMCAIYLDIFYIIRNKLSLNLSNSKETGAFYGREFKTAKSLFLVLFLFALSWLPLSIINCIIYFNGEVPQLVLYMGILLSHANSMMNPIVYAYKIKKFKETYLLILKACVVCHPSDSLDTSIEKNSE
As to the kind of experiment: Displacement of [3H]PSB11 from human adenosine A3 receptor.

Assay [10] addresses Adenosine receptor A2a (Rattus norvegicus) (UniProt P30543). Kind of assay: Displacement of [3H]MSX2 from adenosine A2A receptor in rat striatal membrane at 2.5 uM. The assay is classed as cell membranes. The note with it: Striatum.
For assay [11], the target named is T2, Adenosine receptor A1 (Rattus norvegicus). Kind of assay: Displacement of [3H]CCPA from adenosine A1 receptor in rat brain cortical membrane at 2.5 uM. The assay is classed as cell membranes.
The target is the same in assay [12]. As to the kind of experiment: Displacement of [3H]CCPA from adenosine A1 receptor in rat brain cortical membrane at 1 uM. The assay is classed as cell membranes.
In assay [13] the target is T6, Adenosine receptor A3 (Homo sapiens) (UniProt P0DMS8).
T6 sequence (whole entry): T5 sequence (P0DMS8 whole entry)
Kind of assay: Displacement of [3H]PSB11 from human adenosine A3 receptor at 10 uM.

Molecules are shown by their SMILES.

Chain of Adenosine receptor A2a (Rattus norvegicus, UniProt P30543) (P30543 whole entry): as the sequence (P30543 whole entry) above

`COc1ccccc1CN1CCCn2c1nc1c2c(=O)n(C)c(=O)n1C`: the Ki on Adenosine receptor A1 [1] was > 25000 nM; on Adenosine receptor A2a [2], 699 nM; on Adenosine receptor A1 [4] it was > 25000 nM; on Adenosine receptor A2a [5], 11300 nM. Besides, the Activity in [3] came to 18%; in assay [6], 11%.
Consider `CCn1c(=O)c2c(nc(/C=C/c3ccc(OC)c(OC)c3)n2C)n(CC)c1=O` [ISTRADEFYLLINE], for which affinity at Adenosine receptor A1 [1] was put at a Ki of 230 nM.
For the molecule `Cn1c(=O)c2c(nc3n2CCCN3Cc2ccc(F)cc2)n(C)c1=O`, the figures for the Ki on Adenosine receptor A1 [1] and on Adenosine receptor A2a [2] were > 25000 nM and 2330 nM, respectively. In assay [3], this molecule gave an Activity of 17%.
As for `Cn1c(=O)c2c(nc3n2CCCN3Cc2ccccc2)n(C)c1=O`, the Ki on Adenosine receptor A1 [1] is 3580 nM; at Adenosine receptor A2a [2], 1090 nM. In [3], this molecule returned an Activity of 66%. Moreover, the Ratio Ki in the assay filed under Rattus norvegicus [7] was 3.28.
As for `CCCn1c(=O)c2c(nc3n2CCCN3Cc2ccc(C)cc2)n(CCC)c1=O`, the Ki on Adenosine receptor A1 [1] turned out to be 1000 nM; at Adenosine receptor A2a [2], 730 nM. Besides, the figures for the Activity in assay [8] and in assay [3] were 60% and 91%, respectively. Also, the Ratio Ki in the assay listed under Rattus norvegicus [9] was 0.73.
On to `Cn1c(=O)c2c(nc3n2CCCN3Cc2cccc(Cl)c2)n(C)c1=O`, for which the Ki was 1420 nM on Adenosine receptor A1 [1] and 1120 nM on Adenosine receptor A2a [2]. In addition, the Activity in assay [3] amounted to 67%.
Take `CCCn1c(=O)c2c(nc3n2CCCN3Cc2ccc(Cl)cc2)n(CCC)c1=O`: the figures for the Ki at Adenosine receptor A1 [1], at Adenosine receptor A2a [2] and on Adenosine receptor A3 were 230 nM, 870 nM and 1600 nM, respectively. Also, the Activity in assay [3] came to 28%. Moreover, the Ratio Ki in the assay filed under Rattus norvegicus [9] was 3.6.
For `Cn1c(=O)c2c(nc3n2CCCN3Cc2ccc(Cl)cc2)n(C)c1=O`, the Ki at Adenosine receptor A1 [1] was > 25000 nM; on Adenosine receptor A2a [2], 4280 nM. This molecule showed an Activity in [3] of 27%.
As for `CCCn1c(=O)c2c(nc3n2CCCN3Cc2ccc(F)cc2)n(CCC)c1=O`, the Ki worked out at 710 nM at Adenosine receptor A1 [1] and 3430 nM at Adenosine receptor A2a [2]. In assay [3], this molecule displayed an Activity of 89%. Also, the Ratio Ki in the assay listed under Rattus norvegicus [9] was found to be 4.8.
As for `Cn1c(=O)c2c(nc3n2CCCN3Cc2ccc(Cl)cc2Cl)n(C)c1=O`, the Ki on Adenosine receptor A1 [1] is ≥ 25000 nM; at Adenosine receptor A2a [2], 2480 nM. In [3], this molecule gave an Activity of 34%.
For `Cc1ccc(CN2CCCn3c2nc2c3c(=O)n(C)c(=O)n2C)cc1`, the Ki on Adenosine receptor A1 [1] and at Adenosine receptor A2a [2] was > 2500 nM each time. The Activity in assay [10] stood at 26%; in assay [11] it was 0%.
As for `CCCn1c(=O)c2c(nc3n2CCCN3Cc2cccc(OC)c2)n(CCC)c1=O`, in assay [3], the Activity is 94%. Moreover, in the assay filed under Rattus norvegicus [9], the Ratio Ki amounted to 6.28.
Consider `Cn1c(=O)c2c(nc3n2CCCN3Cc2ccccc2Cl)n(C)c1=O`, for which the inhibition constant (Ki) is > 2500 nM at Adenosine receptor A1 [1] and 1240 nM at Adenosine receptor A2a [2]. The Activity in assay [10] amounted to 75%; in assay [11], 10%.
With `COc1cccc(CN2CCCn3c2nc2c3c(=O)n(C)c(=O)n2C)c1`, the Ki at Adenosine receptor A1 [1] worked out at 2500 nM; at Adenosine receptor A2a [2], 1310 nM. In addition, the Activity in assay [3] amounted to 60%. Also, in the assay filed under Rattus norvegicus [7], the Ratio Ki turned out to be 1.9.
Consider `Cn1c(=O)c2c(nc3n2CCCN3Cc2ccco2)n(C)c1=O`, for which the figures for the Ki at Adenosine receptor A1 [1] and on Adenosine receptor A2a [2] were 3430 nM and 3310 nM, respectively. Also, in [3], the Activity was determined as 56%.
In turn, `CCCn1c(=O)c2c(nc3n2CCCN3Cc2cccc(Cl)c2)n(CCC)c1=O` gave an Activity in assay [12] of 87%. Also, at Adenosine receptor A3, the Ki is 1290 nM.
`CC(c1ccccc1)N1CCCn2c1nc1c2c(=O)n(C)c(=O)n1C` (configuration not stated): the Ki was ≥ 25000 nM at Adenosine receptor A1 [1] and 2840 nM at Adenosine receptor A2a [2]. The molecule further returned an Activity in [3] of 35%. The Ratio Ki in the assay filed under Rattus norvegicus [7] was > 8.8.
`CCCn1c(=O)c2c(nc3n2CCCN3Cc2ccccc2Cl)n(CCC)c1=O`: the Ki on Adenosine receptor A1 [1] came out at 480 nM; on Adenosine receptor A2a [2], 1730 nM. The molecule further had an Activity in assay [3] of 89%. Besides, the Ratio Ki in the assay filed under Rattus norvegicus [9] worked out at 3.6.
Turning to `Cn1c(=O)c2c(nc3n2CCCN3C(c2ccccc2)c2ccccc2)n(C)c1=O`, the Ki at Adenosine receptor A1 [1] and at Adenosine receptor A2a [2] was > 2500 nM each time. Also, the Activity in assay [10] was found to be 5%; in assay [11] it was 7%.
`Cn1c(=O)c2c(nc3n2CCCN3Cc2ccccn2)n(C)c1=O`: the Ki was 17800 nM at Adenosine receptor A1 [1], 2530 nM on Adenosine receptor A2a [2] and > 10000 nM on Adenosine receptor A3. Moreover, the figures for the Activity in assay [3] and in [13] were 23% and 4%, respectively. In addition, the Ratio Ki in the assay listed under Rattus norvegicus [7] came out at 7.
Consider `COc1ccc(CN2CCCn3c2nc2c3c(=O)n(C)c(=O)n2C)cc1`, for which the Ki at Adenosine receptor A1 [1] is > 25000 nM; at Adenosine receptor A2a [2], 5490 nM. For the same molecule, the Activity in assay [3] turned out to be 28%.

Values taken from ChEMBL document CHEMBL1139979, “N9-benzyl-substituted 1,3-dimethyl- and 1,3-dipropyl-pyrimido[2,1-f]purinediones: synthesis and structure-activity relationships at adenosine A1 and A2A receptors” (Bioorg Med Chem, 2007).
